The target in this assay is Somatostatin receptor. The assay is described as follows: Dissociation constant binding to somatostatin receptor of At-20 mouse pituitary carcinoma cell membranes. To be noted: pituitary gland cell.

In general, Kd refers to the free concentration of one partner at which half of the binding sites on the other are occupied at equilibrium, for simple one-to-one binding.

As to `C[C@H](O)[C@H](CO)NC(=O)[C@H](CS)NC(=O)[C@@H](NC(=O)[C@H](CCCCN)NC(=O)[C@@H](Cc1c[nH]c2ccccc12)NC(=O)[C@H](Cc1ccccc1)NC(=O)[C@H](CS)NC(=O)[C@@H](Cc1ccccc1)NC(=O)CN(CCN(CCN(CC(=O)O)CC(=O)O)CC(=O)O)CC(=O)O)[C@@H](C)O`, the equilibrium dissociation constant (Kd) came to 5.57 nM.

Source of the values: ChEMBL document CHEMBL1127391, “Generally applicable, convenient solid-phase synthesis and receptor affinities of octreotide analogs” (J Med Chem, 1994).
